Drawing on ChEMBL document CHEMBL1926660, “4-Aminoethylpiperazinyl aryl ketones with 5-HT₁A/5-HT₇ selectivity” (Bioorg Med Chem, 2012), this text covers inhibition for twelve compounds.

SMILES strings stand for the structures.

Test [1] concerns the target T1, 5-hydroxytryptamine receptor 1A (Homo sapiens) (UniProt P08908).
T1 sequence (whole entry): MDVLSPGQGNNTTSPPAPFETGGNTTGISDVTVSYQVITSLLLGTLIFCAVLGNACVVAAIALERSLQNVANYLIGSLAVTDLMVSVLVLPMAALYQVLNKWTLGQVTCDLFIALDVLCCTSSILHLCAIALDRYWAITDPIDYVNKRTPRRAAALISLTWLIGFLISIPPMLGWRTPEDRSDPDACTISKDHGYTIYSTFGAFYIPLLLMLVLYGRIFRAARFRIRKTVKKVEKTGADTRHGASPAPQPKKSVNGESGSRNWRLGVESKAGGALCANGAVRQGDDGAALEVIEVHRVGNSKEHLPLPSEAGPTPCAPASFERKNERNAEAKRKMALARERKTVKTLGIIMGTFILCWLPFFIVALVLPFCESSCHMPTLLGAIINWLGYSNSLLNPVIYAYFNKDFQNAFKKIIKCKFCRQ
Kind of test: Displacement of [3H]LSD from human 5-HT1A receptor expressed in CHO-K1 cells at 10 uM. In kind it is cell-based.

Test [2] addresses 5-hydroxytryptamine receptor 7 (Homo sapiens) (UniProt P34969). Kind of test: Displacement of […] from human 5-HT7 receptor expressed in HEK293 cells at 10 uM. Format: cell-based.

5-hydroxytryptamine receptor 7 (Homo sapiens), sequence (P34969 whole entry): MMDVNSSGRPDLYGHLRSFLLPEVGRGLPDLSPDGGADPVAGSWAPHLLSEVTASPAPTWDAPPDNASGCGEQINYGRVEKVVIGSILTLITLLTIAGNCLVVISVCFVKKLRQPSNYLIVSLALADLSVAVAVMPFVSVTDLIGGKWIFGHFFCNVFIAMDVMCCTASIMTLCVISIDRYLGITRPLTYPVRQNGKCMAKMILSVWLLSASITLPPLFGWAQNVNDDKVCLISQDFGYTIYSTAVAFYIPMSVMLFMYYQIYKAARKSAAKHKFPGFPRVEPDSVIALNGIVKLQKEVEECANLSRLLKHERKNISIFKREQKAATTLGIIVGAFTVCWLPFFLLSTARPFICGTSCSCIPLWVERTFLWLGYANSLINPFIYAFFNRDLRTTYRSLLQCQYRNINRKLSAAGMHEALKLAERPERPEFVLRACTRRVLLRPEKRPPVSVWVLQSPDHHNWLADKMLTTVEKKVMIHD

`CC(C)(C)CCNCCN1CCN(C(=O)c2cc(C(F)(F)F)cc(C(F)(F)F)c2)CC1`: the inhibition in test [1] is -4.4%; in test [2], -0.3%.
The matching figures for `O=C(c1ccc(Cl)c(Cl)c1)N1CCN(CCNCCCc2nc3ccccc3[nH]2)CC1`: 49.5% and 56.2%.
Taken in the same sequence, the figures for `CC(C)c1cc(CNCCN2CCN(C(=O)c3cc(C(F)(F)F)cc(C(F)(F)F)c3)CC2)on1` were 13% and -0.3%.
Taken in the same sequence, the figures for `CC(C)c1cc(CNCCN2CCN(C(=O)c3ccc(Cl)c(Cl)c3)CC2)on1` were 76.4% and 16.1%.
For `O=C(c1cc(Cl)cc(Cl)c1)N1CCN(CCNCCCc2nc3ccccc3[nH]2)CC1`, the inhibition in test [1] is 90.1%; in test [2] it was 62.7%.
Taken in the same sequence, the figures for `CC(C)c1cc(CNCCN2CCN(C(=O)c3cc(Cl)cc(Cl)c3)CC2)on1` were 43.2% and -0.2%.
`CC(C)(C)CCNCCN1CCN(C(=O)c2cc(Cl)cc(Cl)c2)CC1`: the inhibition in test [1] is 33.7%; in test [2], -0.6%.
The matching figures for `CC(C)c1cc(CNCCN2CCN(C(=O)c3ccc(Cl)cc3)CC2)on1`: 56.5% and 93.6%.
As for `CC(C)(C)CCNCCN1CCN(C(=O)c2ccc(Cl)cc2)CC1`, the inhibition in test [1] is 36.7%; in test [2] it was -0.6%.
Consider `CC(C)(C)CCNCCN1CCN(C(=O)c2ccc(Cl)c(Cl)c2)CC1`, for which the inhibition in test [1] amounted to 65.2%; in test [2], 2%.
Turning to `O=C(c1ccc(Cl)cc1)N1CCN(CCNCCCc2nc3ccccc3[nH]2)CC1`, the inhibition in test [1] turned out to be 47.5%; in test [2], 36.8%.
The matching figures for `O=C(c1cc(C(F)(F)F)cc(C(F)(F)F)c1)N1CCN(CCNCCCc2nc3ccccc3[nH]2)CC1`: 87.7% and 45.4%.
